Data: patent publication US10941169B2, “Crystal of cyclic phosphonic acid sodium salt and method for manufacturing same” (OTSUKA CHEMICAL CO., LTD., priority 2014, dated 2021)
Structures can show the parent of a compound that is named as a salt.

Key:
[1] = Storage stability, hermetically sealed, −20° C. and 35° C. for 3 months; format: physicochemical; conditions: stored at −20° C. and 35° C. for 3 months
Excerpt: The crystal of 2ccPA of the present invention is excellent in storage stability.

[2] = Stability test at 35° C. (storage, weekly LC purity analysis); format: physicochemical; conditions: stored at 35° C.; for purity in stability test, number of days 0: day 0; for purity in stability test, number of days 7: day 7; for purity in stability test, number of days 14: day 14; for purity in stability test, number of days 21: day 21; for purity in stability test, number of days 28: day 28; for purity in stability test, number of days 56: day 56; for stability (assessment in words): results of Table 1
Description: As the amorphous of 2ccPA above, 300 mg of 2ccPA (obtained in Example 3) dissolved in 5 mL of water and freeze-dried was used.
In the stability test, about 15 mg each of the 2ccPA crystal of the present invention, the 2ccPA of a formula described in documents, and an amorphous of 2ccPA were weighed, and individually diluted with 5 mL of acetonitrile/water (1/1). Then, 5 μL each of the diluted solutions was analyzed weekly using the LC-2010CHT (Shimazu Corporation).

[3] = listed as 2ccPA crystal obtained by the production method of the present invention, sodium salt

Row | Structure (SMILES) | storage stability (decrease in purity, decomposition) [1] | purity in stability test, number of days 0 ([2]; sodium salt) | purity in stability test, number of days 7 ([2]; sodium salt) | purity in stability test, number of days 14 ([2]; sodium salt) | purity in stability test, number of days 21 ([2]; sodium salt) | purity in stability test, number of days 28 ([2]; sodium salt) | purity in stability test, number of days 42 ([2]; day 42) | purity in stability test, number of days 56 [2, 3] | purity in stability test, number of days 56 ([2]; sodium salt) | stability (assessment in words) [2, 3] | purity in stability test, number of days 0 [2] | purity in stability test, number of days 7 [2] | purity in stability test, number of days 14 [2] | purity in stability test, number of days 21 [2] | purity in stability test, number of days 28 [2] | stability (assessment in words) [2]
1 | CCCCCCCC/C=C\CCCCCCCC(=O)OCC1COP(=O)([O-])C1.[Na+] (stereo not shown) [2ccPA crystal of the present invention, 4-[(Z)-octadec-9-enoyloxymethyl]-2-oxo-1,2-λ^5-oxaphosphorane-2-olate sodium salt] | little decrease in purity | 99.561% | 99.605% | 99.576% | 99.631% | 99.626% | 99.593% | 99.493% | 99.493% | excellent stability | – | – | – | – | – | –
2 | CCCCCCCC/C=C\CCCCCCCC(=O)OCC1COP(=O)(O)C1 (stereo not shown) [A formula described in documents, sodium salt of 9-octadecenoic acid (9Z)-(2-hydroxy-2-oxo-2λ^5-1,2-oxaphosphoran-4-yl)methyl ester] | – | – | – | – | – | – | – | – | – | – | 67.934% | 66.665% | 67.517% | 62.77% | 59.841% | unstable
3 | CCCCCCCC/C=C\CCCCCCCC(=O)OCC1COP(=O)([O-])C1.[Na+] (stereo not shown) [Amorphous of 2ccPA, sodium salt of 9-octadecenoic acid (9Z)-(2-hydroxy-2-oxo-2λ^5-1,2-oxaphosphoran-4-yl)methyl ester] | – | – | – | – | – | – | – | – | – | – | 99.599% | 83.363% | 45.02% | 34.738% | 27.077% | unsatisfactory
